Laboratory results from PubChem BioAssay AID2823 (Broad Institute, 2010).
Calls of active or inactive are those of the source. How the calls were made is not given here.

Biological target: RanGTP-importin-beta complex (human Ran / KPNB1)
Test: disruptors of RanGTP/KPNB1 binding – biochemical, FRET, CFP/YFP, cell-free homogeneous, confirmation (AID 2823)
Settings: CFP-Ran/YFP-importin-beta FRET ratio

SMILES	IC50
N#Cc1c(N)nc2c(c1-c1ccc(F)cc1)CCC2	11 µM
Cc1nn(C)c(Oc2ccc(Cl)cc2)c1C(=O)O	> 50 µM (inactive)
O=S(=O)(Nc1nc2ccccc2nc1-[n+]1cccc(N=C([O-])c2ccccc2Cl)c1)c1ccccc1	6.27 µM
Cc1ccc(N=Cc2cc3c(cc2[N+](=O)[O-])OCO3)cc1[N+](=O)[O-]	> 50 µM (inactive)
Cc1ccc(C2C(C#N)=C(N)N(c3cccnc3)C3=C2C(=O)CCC3)c(C)c1 (stereo not given)	> 50 µM (inactive)
O=C(COC(=O)CSCC(=O)N1CCCCC1)Nc1ccc(Cl)cc1	> 50 µM (inactive)
COc1ccc(N=Cc2cc(Cc3ccccc3Cl)cc([N+](=O)[O-])c2O)cc1OC	> 50 µM (inactive)
Cc1nc2[nH]c(=O)c3c(n2n1)NC1=C(C(=O)CC(C)(C)C1)C3c1ccccc1 (stereo not given)	3.37 µM
CC1CC(C)CN(c2cc(=O)n(Cc3ccc(F)cc3)c(=O)[nH]2)C1 (stereo not given)	> 50 µM (inactive)
C/C(=N\NC(=O)c1c(C)nc2ccccn12)c1ccc(O)cc1O	> 50 µM (inactive)
CCc1ccc(CNc2ccc3c(c2)ncn3CC)cc1	> 50 µM (inactive)
CC1=Nc2ccccc2/C1=C\c1nc(-c2ccc(F)cc2)oc1O	> 50 µM (inactive)
CCc1ccc(C2C(C#N)=C(N)SC(N)=C2C#N)cc1	> 50 µM (inactive)
COc1ccc(Br)cc1/C=C/C(=O)NC(=S)Nc1ccc(CN2CCOCC2)cc1	> 50 µM (inactive)
O=C(Cn1nnc2ccccc21)N/N=C\c1cccs1	> 50 µM (inactive)
CC1CCN(c2cc(=O)n(C3CCCCC3)c(=O)[nH]2)CC1	> 50 µM (inactive)
COc1cc(NC(=O)Cn2ncc(Cl)c(Cl)c2=O)c(C)cc1[N+](=O)[O-]	> 50 µM (inactive)
N#Cc1c2ncn(CC(=O)c3ccc(Br)cc3)c(=O)c2c2n1CCC2	> 50 µM (inactive)
CCOC(=O)/C(C#N)=C\c1ccc(N2CCN(C)CC2)cc1	15 µM
Cc1ccc(NC(=O)Cn2nc(C(F)(F)F)c3c2CCC3)cc1	> 50 µM (inactive)
O=C(O)C1CCCC2CN3CCc4c([nH]c5ccccc45)C3C(O)C21 (stereo not given)	> 50 µM (inactive)
CCc1ccc(CNc2ccc3c(c2)ncn3C(C)(C)C)cc1	> 50 µM (inactive)
COc1cccc(-c2coc3c(C)c4oc(=O)c(CC(=O)O)c(C)c4cc23)c1	> 50 µM (inactive)
CN(C)C=NC(=O)c1cc(C(=O)c2ccc(C(C)(C)C)cc2)c[nH]1	> 50 µM (inactive)
COCCCn1c(=N)c(C(=O)NCc2ccc3c(c2)OCO3)cc2c(=O)n3ccccc3nc21	28.4 µM

SMILES	IC50
Nc1nc(N2CCOCC2)nc(N(c2ccccc2)c2ccccc2)n1	> 50 µM (inactive)
Cc1ccc(S(=O)(=O)c2cc3c(=O)n4cccc(C)c4nc3n(C3CCCCC3)c2=N)cc1	1.2 µM
CN1CC2=CC(O)CC3Oc4c(O)ccc(c4[C@]23C)C1 (stereo not given in full)	> 50 µM (inactive)
COCCCn1c(N)c(C(=O)OC(C)COC)c2nc3ccccc3nc21 (stereo not given)	24.8 µM
CCN1CCc2nc(NC(=O)c3cc(F)c(F)cc3Cl)sc2C1	> 50 µM (inactive)
CC1(C)CC(=O)C=C(NNC(=O)C2CCCCC2)C1	> 50 µM (inactive)
Cc1ccc2cc(CN(CC3CCCO3)C(=S)Nc3ccccc3)c(=O)[nH]c2c1C (stereo not given)	> 50 µM (inactive)
Cc1ccc(S(=O)(=O)/C(C#N)=C/c2c(N3CCC(C(N)=O)CC3)nc3ccccn3c2=O)cc1	> 50 µM (inactive)
C=C(C)Cn1c(SCC(=O)O)nnc1-c1ccc(OC)cc1	> 50 µM (inactive)
COc1ccc(CCn2c(C)nc3ccccc3c2=O)cc1OC	> 50 µM (inactive)
CCSc1nnc(-c2cc(Br)ccc2N=Cc2c(C)[nH]n(-c3ccccc3)c2=O)c(=O)[nH]1	> 50 µM (inactive)
COc1ccccc1C1C(C(N)=O)=C(C)Nc2ncnn21 (stereo not given)	> 50 µM (inactive)
CCc1nnc(NC(=O)c2c(C)nn(-c3ccccc3)c2Cl)s1	> 50 µM (inactive)
COc1ccc(NC(=O)COC(C)=O)cc1Cl	> 50 µM (inactive)
Cc1nn(C(=O)c2ccco2)c(C)c1CN1C(=O)c2ccccc2C1=O	> 50 µM (inactive)
Cc1c(C=O)cnn1CCC(=O)O	> 50 µM (inactive)
CCn1c(=O)cc(N2CCOCC2)[nH]c1=O	> 50 µM (inactive)
COc1ccc(C(=O)Cc2cnn(-c3ccccc3)c2)c(O)c1	> 50 µM (inactive)
O=C(CSCC(=O)NC1CC1)Nc1ccccc1	> 50 µM (inactive)
COc1ccc(C(CNC(=O)c2cc(F)c(F)c(F)c2F)N2CCOCC2)cc1 (stereo not given)	> 50 µM (inactive)
O=c1[nH]c2c(s1)C(c1ccco1)C1C3CCC(C3)C1S2 (stereo not given)	> 50 µM (inactive)
Cc1c(CCC(=O)NCCCN2CCCC2=O)c(=O)oc2c(C)c(O)ccc12	15.6 µM
CCOCCCNC(=S)NCCCNc1nc2cc3c(cc2cc1C#N)OCO3	9.41 µM
O=C(NNc1c2ccccc2nc2ccccc12)c1ccc(O)cc1O	> 50 µM (inactive)
Cn1c(N)c(C(=O)COC(=O)C2(c3ccc(F)cc3)CCCC2)c(=O)n(C)c1=O	> 50 µM (inactive)

SMILES	IC50
N#Cc1c(N)nc2c(c1-c1ccccc1)CCC2	14.3 µM
CCS(=O)(=O)c1nc(S(=O)(=O)c2ccc(C)cc2)c(NCc2ccccn2)s1	> 50 µM (inactive)
N#Cc1cc2c(ccc3ccccc32)oc1=O	> 50 µM (inactive)
CCOC(=O)c1c(NC(=O)C2CCCCC2)sc2c1CCN(C(C)C)C2	> 50 µM (inactive)
CCOC(=O)C1(CC2CCCCO2)CCN(C(=O)Nc2ccc3c(c2)OCO3)CC1 (stereo not given)	> 50 µM (inactive)
O=C(Oc1c(Br)cc(C(=S)N2CCOCC2)cc1Br)c1ccc(Cl)cc1	> 50 µM (inactive)
COc1ccc2cc(C#N)c(N3CCN(C(=O)c4ccccc4C)CC3)nc2c1	> 50 µM (inactive)
CCOC(=O)c1c(N2C(=O)Nc3ccccc3N2O)sc2c1CCCC2	> 50 µM (inactive)
O=C(O)C1C2CCC(C2)C1C(=O)NCCc1ccc(F)cc1 (stereo not given)	> 50 µM (inactive)
CC1C=CCC2C(=O)N(c3ccccc3OC(=O)c3cccs3)C(=O)C12 (stereo not given)	> 50 µM (inactive)
N#Cc1c(/N=C/c2ccc(O)cc2O)sc2c1C1CCN2CC1	> 50 µM (inactive)
Cc1ccc(S(=O)(=O)NC(C(=O)Oc2ccc3ccc(=O)oc3c2)c2ccccc2)cc1 (stereo not given)	24.8 µM
Nc1c(C(=O)NC2CCCC2)c2nc3ccccc3nc2n1/N=C/c1ccco1	14.3 µM
COc1ccc(-c2cc(C(F)(F)F)n3nc(N)nc3n2)cc1	14.6 µM
O=C(Cc1n[nH]c(=O)c2ccccc12)NCc1ccccn1	> 50 µM (inactive)
COCc1ccc(CN2CCCC(CO)(Cc3ccccc3C)C2)o1 (stereo not given)	> 50 µM (inactive)
C=CCOc1c(Br)cc(CNc2ccc(NC(=O)C(C)C)c(OC)c2)cc1OC	> 50 µM (inactive)
CCn1c2ccccc2c2cc(NC(=O)CNC)ccc21	> 50 µM (inactive)
Cc1c(Cl)c([N+](=O)[O-])nn1CCCC(=O)Nc1sc2c(c1C(N)=O)CCC(C)C2 (stereo not given)	> 50 µM (inactive)
Cc1cccn2c(=O)c(/C=C(\C#N)C(=O)NC3CCS(=O)(=O)C3)c(Oc3ccc(F)cc3)nc12 (stereo not given)	15.6 µM
CC(OC(=O)CNC(=O)c1cccc(F)c1)C(=O)NC1CCCCC1C (stereo not given)	> 50 µM (inactive)
CCCOC(=S)NC(=O)c1sc2ccccc2c1Cl	> 50 µM (inactive)
CN1CCN(c2cc(=O)n(-c3ccc(Cl)cc3)c(=O)[nH]2)CC1	> 50 µM (inactive)
COC(=O)c1c(NC(NC(=O)c2ccccc2)(C(F)(F)F)C(F)(F)F)sc2c1CCN(C)C2	35.8 µM
COc1ccc(NS(=O)(=O)c2cc(NC(=O)c3cccs3)ccc2N2CCOCC2)cc1	> 50 µM (inactive)

SMILES	IC50
CCOC(=O)c1c(NC(=O)CN2CCCc3ccccc32)sc(C(C)=O)c1C	> 50 µM (inactive)
Cc1ccc(S(=O)(=O)N(C)Cc2ccc(C(=O)N/N=C3\CC(=O)CC(C)(C)C3)cc2)cc1	> 50 µM (inactive)
CCN(CC)S(=O)(=O)c1cc(C(=O)Nc2ccccc2[N+](=O)[O-])ccc1Cl	> 50 µM (inactive)
CC(C)CN(Cc1c(O)ccc2ccccc12)CC(C)C	> 50 µM (inactive)
Cc1cccc(OCC(=O)NNc2c3ccccc3nc3ccccc23)c1	> 50 µM (inactive)
CCC(C)c1ccc(OCC(=O)O)cc1 (stereo not given)	> 50 µM (inactive)
O=C(O)Cn1cc(/C=C2\SC(=O)N(c3ccccc3)C2=O)c2ccccc21	39.4 µM
O=C(CN1CCN(C/C=C/c2ccccc2)CC1)NC(=O)NC1CCCCC1	> 50 µM (inactive)
O=C(NCC1CCN(Cc2ccccc2Cl)CC1)Nc1ccccc1F	> 50 µM (inactive)
CCN(CC)S(=O)(=O)c1ccc(NC(=O)c2ccc(Sc3nncn3C)c([N+](=O)[O-])c2)cc1	> 50 µM (inactive)
Cc1ccc(Nc2nc(N)nc(CC#N)n2)cc1	> 50 µM (inactive)
COc1cccc(NC(=O)Nc2ccc3c(c2)N(C)C(=O)CS3)c1	> 50 µM (inactive)
CCOC(=O)c1c(NC(=O)Cc2ccccc2)sc2c1CCN(CC)C2	> 50 µM (inactive)
Cc1cccc(C)c1OCC(=O)OC/C(O)=C(\C#N)c1nc2ccccc2[nH]1	> 50 µM (inactive)
COC(=O)C1=C(C)NC(C)=C(C(=O)OC)C1C(=O)OC(C)C(=O)c1ccccc1 (stereo not given)	> 50 µM (inactive)
COC(=O)C1=CN(Cc2ccc(OC)cc2)C=C(C(=O)OC)C1c1ccc(O)c(OC)c1	> 50 µM (inactive)
Cc1cccc(Oc2nc(-c3cccc([N+](=O)[O-])c3)nc3ccccc23)c1C	> 50 µM (inactive)
COc1ccccc1N=C(C)C1=C(O)CC(c2ccccc2)CC1=O (stereo not given)	> 50 µM (inactive)
CC1=C(C(=O)OC(C)C)C(c2cccnc2)C2=C(CC(C)(C)CC2=O)N1 (stereo not given)	20.5 µM
COC(=O)c1ccc2c(=O)n(CCN3CCOCC3)c(SCC(=O)C(C)(C)C)nc2c1	> 50 µM (inactive)
CCCOc1ccc(Cn2ccnc2)cc1[N+](=O)[O-]	> 50 µM (inactive)
Cc1ccc(S(=O)(=O)CC(=O)N(CCCN(C)C)c2nc3ccc(C)cc3s2)cc1	> 50 µM (inactive)
Cc1cc(CNC(=O)COc2ccc(F)cc2)c2ccccc2n1	> 50 µM (inactive)
C=CCn1c(SCC(=O)N2CCCCC2)nnc1-c1ccncc1	> 50 µM (inactive)
CCOC(=O)CC(=O)CSc1nc2c(cc1C#N)CCC2	29.2 µM
